Data published in patent US6737383B1, “Herbicidal oxadiazolidines” (priority 1999, dated 2004).

Legend:
corn = assay: Test B pre/postemergence corn; type: in vivo, Zea mays
Summary of the method: (§1)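 Herbicidal effect was estimated by eye on a ten-point control scale after plants spent twelve to sixteen days in a greenhouse following soil or foliar treatment. Foliar sprays targeted plants at one to four leaves; all doses were formulated in a non-phytotoxic solvent with surfactant.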

wheat = assay: Test B pre/postemergence wheat; type: in vivo, Triticum aestivum
Summary of the method: as §1

giant foxtail = assay: Test B pre/postemergence giant foxtail; type: in vivo, Setaria faberii
Summary of the method: as §1

duck salad = assay: Test B flood test duck salad; type: in vivo, Heteranthera limosa
Summary of the method: (§2)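 Read-out is a visual response score from 0 (no effect) to 10 (complete control), assigned by comparison with untreated controls. Treatment was applied at the 2-leaf stage, and plants stayed in the greenhouse for twelve to sixteen days before scoring.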

crabgrass = assay: Test B pre/postemergence crabgrass; type: in vivo, Digitaria sanguinalis
Summary of the method: as §1

rape = assay: Test B pre/postemergence rape; type: in vivo, Brassica napus
Summary of the method: as §1

surinam grass = assay: Test B pre/postemergence surinam grass; type: in vivo, Brachiaria decumbens
Summary of the method: as §1

rice = assay: Test B flood test rice; type: in vivo, Oryza sativa
Summary of the method: as §2

blackgrass = assay: Test B pre/postemergence blackgrass; type: in vivo, Alopecurus myosuroides
Summary of the method: as §1

purple nutsedge = assay: Test B pre/postemergence purple nutsedge; type: in vivo, Cyperus rotundus
Summary of the method: as §1

velvetleaf = assay: Test B pre/postemergence velvetleaf; type: in vivo, Abutilon theophrasti
Summary of the method: as §1

wild oat = assay: Test B pre/postemergence wild oat; type: in vivo, Avena fatua
Summary of the method: as §1

bedstraw = assay: Test B pre/postemergence bedstraw; type: in vivo, Galium aparine
Summary of the method: as §1

pigweed = assay: Test B pre/postemergence pigweed; type: in vivo, Amaranthus retroflexus
Summary of the method: as §1

soybean = assay: Test B pre/postemergence soybean; type: in vivo, Glycine max
Summary of the method: as §1

morningglory = assay: Test B pre/postemergence morningglory; type: in vivo, Ipomoea hederacea
Summary of the method: as §1

[1] = Postemergence, Rate 62 g/ha, scale 0 to 10, 0 is no effect, 10 is complete control
[2] = Postemergence, Rate 125 g/ha, scale of 0 to 10 where 0 is no effect and 10 is complete control
[3] = Preemergence, Rate 125 g/ha, scale of 0 to 10 where 0 is no effect and 10 is complete control
[4] = Preemergence, Rate 250 g/ha, scale 0 (no effect) to 10 (complete control)
[5] = Rate 62 g/ha, Preemergence, scale 0 to 10
[6] = Rate 250 g/ha, Postemergence, scale 0 to 10, 0 is no effect, 10 is complete control
[7] = Rate 500 g/ha, Postemergence, scale 0 to 10, 0 is no effect, 10 is complete control
[8] = Rate 500 g/ha, Preemergence, scale 0 to 10 (0 no effect, 10 complete control)
[9] = Pre-emergence, Rate 62 g/ha, scale 0 to 10, 0 is no effect, 10 is complete control
[10] = Rate 125 g/ha, Pre-emergence section (flood test species), scale 0 to 10, 0 no effect, 10 complete control
[11] = Rate 250 g/ha, Pre-emergence (flood test species), scale 0 to 10, 0 is no effect, 10 is complete control
[12] = Rate 500 g/ha, Pre-emergence section of Table B, 0 to 10 scale (0 no effect, 10 complete control)

CC(C)N(C(=O)n1oc(=O)n(CCN(C)C(=O)c2ccccc2)c1=O)c1ccc(F)cc1 [Compound 741]
4: Wheat plant response rating (wheat; [8]) | Giant foxtail plant response rating (giant foxtail; [7]) | B. signalgrass plant response rating (surinam grass; [6]) | Bedstraw plant response rating (bedstraw; [6])
10: Giant foxtail plant response rating (giant foxtail; [8]) | Crabgrass plant response rating (crabgrass; [8])
7: Wild oats plant response rating (wild oat; [8]) | Redroot pigweed plant response rating (pigweed; [2]) | Redroot pigweed plant response rating (pigweed; [6]) | Redroot pigweed plant response rating (pigweed; [7]) | Redroot pigweed plant response rating (pigweed; [8])
2: Plant response rating, Giant foxtail (giant foxtail; [3]) | B. signalgrass plant response rating (surinam grass; [4]) | B. signalgrass plant response rating (surinam grass; [8]) | Plant response rating, Soybean (soybean; [1]) | Soybean plant response rating (soybean; [2])
3: Wheat plant response rating (wheat; [7]) | Giant foxtail plant response rating (giant foxtail; [6]) | Plant response rating, Velvetleaf (velvetleaf; [3]) | Velvetleaf plant response rating (velvetleaf; [4]) | Velvetleaf plant response rating (velvetleaf; [8]) | Wild oats plant response rating (wild oat; [6]) | Plant response rating, Redroot pigweed (pigweed; [1]) | Soybean plant response rating (soybean; [6]) | Soybean plant response rating (soybean; [7]) | Morningglory plant response rating (morningglory; [7])
9: Giant foxtail plant response rating (giant foxtail; [4]) | Plant response rating, Crabgrass (crabgrass; [1]) | Crabgrass plant response rating (crabgrass; [6]) | Bedstraw plant response rating (bedstraw; [7])
1: Velvetleaf plant response rating (velvetleaf; [7]) | Morningglory plant response rating (morningglory; [2])
5: Plant response rating, Crabgrass (crabgrass; [3]) | Crabgrass plant response rating (crabgrass; [4]) | Crabgrass plant response rating (crabgrass; [5]) | Bedstraw plant response rating (bedstraw; [8]) | Morningglory plant response rating (morningglory; [6])
0: Plant response rating, Corn (corn; [1]) | Corn plant response rating (corn; [2]) | Plant response rating, Corn (corn; [3]) | Corn plant response rating (corn; [4]) | Corn plant response rating (corn; [5]) | Corn plant response rating (corn; [6]) | Corn plant response rating (corn; [7]) | Corn plant response rating (corn; [8]) | Plant response rating, Wheat (wheat; [1]) | Wheat plant response rating (wheat; [2]) | Plant response rating, Wheat (wheat; [3]) | Wheat plant response rating (wheat; [4]) | Wheat plant response rating (wheat; [5]) | Wheat plant response rating (wheat; [6]) | Plant response rating, Giant foxtail (giant foxtail; [1]) | Giant foxtail plant response rating (giant foxtail; [2]) | Giant foxtail plant response rating (giant foxtail; [5]) | Ducksalad plant response rating (duck salad; [9]) | Ducksalad plant response rating (duck salad; [10]) | Ducksalad plant response rating (duck salad; [11]) | Ducksalad plant response rating (duck salad; [12]) | Plant response rating, Rape (rape; [1]) | Rape plant response rating (rape; [2]) | Plant response rating, Rape (rape; [3]) | Rape plant response rating (rape; [4]) | Rape plant response rating (rape; [5]) | Rape plant response rating (rape; [6]) | Rape plant response rating (rape; [7]) | Rape plant response rating (rape; [8]) | Plant response rating, B. signalgrass (surinam grass; [1]) | B. signalgrass plant response rating (surinam grass; [2]) | B. signalgrass plant response rating (surinam grass; Preemergence, Rate 62 g/ha, scale of 0 to 10 where 0 is no effect and 10 is complete control) | Plant response rating, B. signalgrass (surinam grass; [3]) | Rice plant response rating (rice; [9]) | Rice plant response rating (rice; [10]) | Rice plant response rating (rice; [11]) | Rice plant response rating (rice; [12]) | Plant response rating, Blackgrass (blackgrass; [1]) | Blackgrass plant response rating (blackgrass; [2]) | Plant response rating, Blackgrass (blackgrass; [3]) | Blackgrass plant response rating (blackgrass; [4]) | Blackgrass plant response rating (blackgrass; [5]) | Blackgrass plant response rating (blackgrass; [6]) | Blackgrass plant response rating (blackgrass; [7]) | Blackgrass plant response rating (blackgrass; [8]) | Plant response rating, Nutsedge (purple nutsedge; [1]) | Nutsedge plant response rating (purple nutsedge; [2]) | Plant response rating, Nutsedge (purple nutsedge; [3]) | Nutsedge plant response rating (purple nutsedge; [4]) | Nutsedge plant response rating (purple nutsedge; [5]) | Nutsedge plant response rating (purple nutsedge; [6]) | Nutsedge plant response rating (purple nutsedge; [7]) | Nutsedge plant response rating (purple nutsedge; [8]) | Plant response rating, Velvetleaf (velvetleaf; [1]) | Velvetleaf plant response rating (velvetleaf; [2]) | Velvetleaf plant response rating (velvetleaf; [5]) | Velvetleaf plant response rating (velvetleaf; [6]) | Plant response rating, Wild oats (wild oat; [1]) | Wild oats plant response rating (wild oat; [2]) | Plant response rating, Wild oats (wild oat; [3]) | Wild oats plant response rating (wild oat; [4]) | Wild oats plant response rating (wild oat; [5]) | Plant response rating, Bedstraw (bedstraw; [1]) | Bedstraw plant response rating (bedstraw; [2]) | Plant response rating, Bedstraw (bedstraw; [3]) | Bedstraw plant response rating (bedstraw; [4]) | Bedstraw plant response rating (bedstraw; [5]) | Plant response rating, Redroot pigweed (pigweed; [3]) | Redroot pigweed plant response rating (pigweed; [4]) | Redroot pigweed plant response rating (pigweed; [5]) | Plant response rating, Soybean (soybean; [3]) | Soybean plant response rating (soybean; [4]) | Soybean plant response rating (soybean; [5]) | Soybean plant response rating (soybean; [8]) | Plant response rating, Morningglory (morningglory; [3]) | Morningglory plant response rating (morningglory; [4]) | Morningglory plant response rating (morningglory; [5]) | Morningglory plant response rating (morningglory; [8])
